This note sets out measurements from the supplement of paper PMC11562712.

The data set can be described thus: first-order primary biodegradation rate constant k (sorption-corrected, fDis-corrected) (d-1); higher = faster biodegradation. The gist of the method:
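River water with sieved sediment (50 g wet solid L^–1) from German, Swiss, Spanish and Greek river segments was spiked with 129 compounds at 1 μg L^–1 each. It was shaken in the dark at river water temperature (20.5 ± 3.5 °C) for 10 days. Filtered water-phase subsamples were analysed by UHPLC-Orbitrap-MS/MS. First-order k came from log peak-area regression over three replicates, corrected for azide-sterilised sorption-control dissipation and divided by dissolved fraction; invalid fits excluded.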

The mark [1] stands for this setting: river segment: Germany (DE) H_Contam, incubation temperature 24 °C.
Where [2] appears, read: river segment: Germany (DE) T_Contam, incubation temperature 24 °C.
Where [3] appears, read: river segment: Germany (DE) T_Pris, incubation temperature 24 °C.
[4] abbreviates: river segment: Greece (EL) A_Contam, incubation temperature 19 °C.
The mark [5] stands for this setting: river segment: Greece (EL) G_Contam, incubation temperature 19 °C.
Where [6] appears, read: river segment: Greece (EL) G_Pris, incubation temperature 19 °C.
The mark [7] stands for this setting: river segment: Greece (EL) L_Contam, incubation temperature 19 °C.
Setting [8] is: river segment: Spain (ES) L_Contam, incubation temperature 24 °C.
Where [9] appears, read: river segment: Switzerland (CH) U_Contam, incubation temperature 17 °C.
Where [10] appears, read: river segment: Spain (ES) B_Contam, incubation temperature 24 °C.
The mark [11] stands for this setting: river segment: Spain (ES) C_Contam, incubation temperature 24 °C.
Setting [12] is: river segment: Spain (ES) F_Pris_Salt, incubation temperature 24 °C.
[13] abbreviates: river segment: Switzerland (CH) R_Contam, incubation temperature 17 °C.
[14] abbreviates: river segment: Switzerland (CH) U_Pris, incubation temperature 17 °C.
Where [15] appears, read: river segment: Switzerland (CH) C_Contam, incubation temperature 17 °C.

For the compound `COc1ccc(NC(=O)N(C)C)cc1Cl` [Metoxuron], the “first-order primary biodegradation rate constant k” value is, setting by setting: under setting [1], 0.0437; under setting [2], 0.106; under setting [3], 0.0159; under setting [4], 0.209; under setting [5], 0.0278; under setting [6], 0.333. Moreover, the “first-order primary biodegradation rate constant k” value is 0.0742 under setting [7], 0.0285 under setting [8] and 0.022 under setting [9].
`COc1ccc2cc([C@H](C)C(=O)O)ccc2c1` [Naproxen]: the “first-order primary biodegradation rate constant k” value runs as follows: under setting [2], 0.145; under setting [3], 0.00509; under setting [4], 0.115; under setting [5], 0.0195; under setting [6], 0.102; under setting [7], 0.0444. Further, the “first-order primary biodegradation rate constant k” value under setting [10] was 0.76; the “first-order primary biodegradation rate constant k” value under setting [11] worked out at 0.248; the “first-order primary biodegradation rate constant k” value under setting [12] was determined as 0.076; the “first-order primary biodegradation rate constant k” value under setting [8] was found to be 0.413; the “first-order primary biodegradation rate constant k” value under setting [13] stood at 0.141; the “first-order primary biodegradation rate constant k” value under setting [9] was determined as 0.0814.
On to `CN(C)C(=O)Oc1cccc([N+](C)(C)C)c1` [Neostigmine], for which the “first-order primary biodegradation rate constant k” value by setting is: under setting [2], 0.101; under setting [6], 0.0309; under setting [9], 0.486.
As to `NC(=O)c1cccnc1` [Nicotinamide], the “first-order primary biodegradation rate constant k” value reads like this: under setting [4], 0.821; under setting [13], 0.0625.
`CO[C@@H]1[C@@H](OC(N)=O)[C@@H](O)[C@H](Oc2ccc3c(O)c(NC(=O)c4ccc(O)c(CC=C(C)C)c4)c(=O)oc3c2C)OC1(C)C` [Novobiocin]: the “first-order primary biodegradation rate constant k” value runs as follows: under setting [3], 0.212; under setting [5], 0.108; under setting [7], 7.88; under setting [12], 0.145.
With `O=C1Nc2ccc(Cl)cc2C(c2ccccc2)=NC1O` (centres undefined) [Oxazepam], the “first-order primary biodegradation rate constant k” value is, setting by setting: under setting [1], 0.0405; under setting [2], 0.0412; under setting [7], 0.027; under setting [11], 0.124; under setting [8], 0.0149; under setting [9], 0.0242. The “first-order primary biodegradation rate constant k” value under setting [14] is 0.00813.
Take `C=CCOc1ccccc1OCC(O)CNC(C)C` (centres undefined) [Oxprenolol]: the “first-order primary biodegradation rate constant k” value worked out at 0.0433 under setting [1]; 1.9 under setting [2]; 0.0369 under setting [3]; 0.0189 under setting [5]; 0.111 under setting [6]; 0.756 under setting [7]. Further, the “first-order primary biodegradation rate constant k” value reads like this: under setting [10], 0.107; under setting [12], 0.426; under setting [8], 0.142; under setting [15], 0.0127; under setting [13], 0.0926; under setting [9], 0.0534. In addition, the “first-order primary biodegradation rate constant k” value under setting [14] amounted to 0.0473.
Consider `CC(=O)Nc1ccc(O)cc1` [Paracetamol], for which the “first-order primary biodegradation rate constant k” value is 2.34 under setting [1]; 3.16 under setting [2]; 3.21 under setting [4]; 3.16 under setting [5]; 0.888 under setting [6]; 1.24 under setting [10]. The “first-order primary biodegradation rate constant k” value is, setting by setting: under setting [11], 1.28; under setting [8], 2.82; under setting [13], 3.87; under setting [9], 2.14.
Regarding `C#CCN(C)Cc1ccccc1` [Pargyline], the “first-order primary biodegradation rate constant k” value came out at 0.16 under setting [1]; 0.425 under setting [2]; 0.199 under setting [3]; 0.519 under setting [4]; 0.773 under setting [5]; 0.513 under setting [7]. In addition, the “first-order primary biodegradation rate constant k” value is, setting by setting: under setting [10], 0.0362; under setting [11], 0.113; under setting [12], 0.179; under setting [15], 0.22; under setting [13], 0.4; under setting [9], 0.596. The “first-order primary biodegradation rate constant k” value under setting [14] turned out to be 0.768.
Take `CC(C)N(C(=O)CCl)c1ccccc1` [Propachlor]: the “first-order primary biodegradation rate constant k” value amounted to 0.302 under setting [1]; 0.812 under setting [2]; 0.308 under setting [3]; 0.575 under setting [4]; 0.271 under setting [5]; 0.985 under setting [7]. In addition, the “first-order primary biodegradation rate constant k” value reads like this: under setting [10], 1.07; under setting [11], 0.218; under setting [12], 0.212; under setting [8], 0.809; under setting [15], 0.33; under setting [13], 0.429. Moreover, the “first-order primary biodegradation rate constant k” value came out at 0.649 under setting [9] and 0.552 under setting [14].
On to `CC(C)NCC(O)COc1cccc2ccccc12` (centres undefined) [Propranolol], for which the “first-order primary biodegradation rate constant k” value runs as follows: under setting [1], 0.231; under setting [3], 0.118; under setting [5], 0.0886; under setting [6], 0.0227; under setting [10], 0.309; under setting [11], 0.539. The “first-order primary biodegradation rate constant k” value runs as follows: under setting [12], 0.0162; under setting [8], 0.303; under setting [15], 0.0688; under setting [13], 0.251; under setting [9], 0.246; under setting [14], 0.29.
Consider `CCCOC(=O)c1ccc(O)cc1` [Propylparaben], for which the “first-order primary biodegradation rate constant k” value under setting [1] came to 2.67; the “first-order primary biodegradation rate constant k” value under setting [3] was determined as 1.42; the “first-order primary biodegradation rate constant k” value under setting [11] is 2.24; the “first-order primary biodegradation rate constant k” value under setting [12] was determined as 0.275; the “first-order primary biodegradation rate constant k” value under setting [8] was 4.24.
For the compound `CNC(=C[N+](=O)[O-])NCCSCc1ccc(CN(C)C)o1` [Ranitidine], the “first-order primary biodegradation rate constant k” value under setting [1] came out at 0.498; the “first-order primary biodegradation rate constant k” value under setting [2] stood at 28.6; the “first-order primary biodegradation rate constant k” value under setting [3] came out at 17.5; the “first-order primary biodegradation rate constant k” value under setting [4] was 6.6; the “first-order primary biodegradation rate constant k” value under setting [5] is 1.42; the “first-order primary biodegradation rate constant k” value under setting [6] is 28.8. The “first-order primary biodegradation rate constant k” value runs as follows: under setting [7], 3.75; under setting [10], 1.57; under setting [11], 0.0642; under setting [12], 0.103; under setting [8], 3.75; under setting [15], 0.639. Besides, the “first-order primary biodegradation rate constant k” value under setting [13] was 0.559, the “first-order primary biodegradation rate constant k” value under setting [9] worked out at 0.756 and the “first-order primary biodegradation rate constant k” value under setting [14] amounted to 0.596.
Take `NC(=O)c1cn(Cc2c(F)cccc2F)nn1` [Rufinamide]: the “first-order primary biodegradation rate constant k” value is 0.387 under setting [1]; 1.31 under setting [2]; 0.365 under setting [3]; 1.16 under setting [4]; 0.652 under setting [5]; 2.31 under setting [6]. Moreover, the “first-order primary biodegradation rate constant k” value is, setting by setting: under setting [7], 1.2; under setting [10], 0.38; under setting [11], 0.286; under setting [12], 0.221; under setting [8], 0.565; under setting [15], 0.44. The “first-order primary biodegradation rate constant k” value under setting [13] turned out to be 0.57, the “first-order primary biodegradation rate constant k” value under setting [9] was found to be 0.383 and the “first-order primary biodegradation rate constant k” value under setting [14] came to 1.15.
